In PMC5831633 (PLoS ONE, 2018) one finds Km and IC50 data, which are given here for 2 compounds.

Counter-ions that a name gives are not always drawn.

Assay [1] has as its target N2 neuraminidase (A/Chicken/HongKong/G9/1997 H9N2) (Influenza A virus, UniProt Q80H78). In kind it is biochemical. To be noted: pH 6.5; read-out: Km for the MUNANA substrate.
In assay [2] the target is N1 wild-type neuraminidase (A/Anhui/1/2005 H5N1) (Influenza A virus, UniProt A0A0C5AGB3). In kind it is biochemical. To be noted: pH 6.5; read-out: Km for the MUNANA substrate.
The test system of a further assay is N1 and N2 sialidases. The following applies: cited from earlier work.

A word on the Km: it is the substrate concentration at which the rate is half of its maximum. In the case of `CC(=O)N[C@H]1[C@H]([C@H](O)[C@H](O)CO)OC(Oc2ccc3c(C)cc(=O)oc3c2)(C(=O)O)C[C@@H]1O` (stereo partly drawn) [MUNANA, 2-(4-methylumbelliferyl) α-D-acetylneuraminic acid sodium salt hydrate], the results for the Michaelis-Menten constant (Km) in assay [1] and in assay [2] were 70 ± 6.8 µM and 12.8 ± 1.9 µM, respectively.
By IC50 is commonly meant the midpoint of a concentration-inhibition curve. For `CCC(CC)OC1C(NC(C)=O)C(NCc2ccc(-c3ccccc3)cc2)C2C(C(=O)O)C12` (stereo not drawn) [Compound 4a], the IC50 in the assay with N1 and N2 sialidases is 10 µM.
